The text below walks through data of patent US6191124A, “Methanol derivatives for treatment of retroviral infections especially HIV infections” (priority 1997, dated 2001).

For data set [1], the target named is T1, HIV-1 protease (Human immunodeficiency virus type 1 group M subtype B, UniProt P04585). As to the kind of experiment: HIV protease screening assay (fluorescently labeled biotinylated substrate, streptavidin beads), percent inhibition. Format: biochemical. As to the method:
The HIV protease screening assay is based on fluorescently labeled substrate which can be resolved from nonlabeled cleavage product using special beads coated with streptavidin. The substrate is biotinylated at the amino terminal arginine and fluorescently labeled with fluorescein isothiocynate (FITC) at the carboxyl terminal lysine. This assay has been employed to detect novel, nonpeptidic inhibitors of HIV-1 protease. Substrate (20 μl of 0.2 μM), sample (10 μl of desired concentration), and enzyme (10 μl of 0.1 μM) are added to a 96 well pandex plate. The assay is run in 0.1 M sodium acetate buffer at pH 5.5 in the presence of 1.0 M sodium chloride and 0.05% NP-40 with incubated in the dark for one hour at room temperature. Strepavidin coated polystyrene beads {40 μl of 0.1% (w/v)} are added and the plate is incubated in the dark for an additional half hour. The labeled cleavage product is separated from the unreacted substrate via filtration and is read on the Idexx screen machine. The data are analyzed by appropriate computer algorithms to ascertain percent inhibition values.

Data set [2] has as its target T1, HIV-1 protease. The experiment in a line: Determination of Ki values, HIV-1 protease. Format: biochemical. The procedure:
Determination of Ki values utilizes the same materials and equipment employed for percent inhibition studies. Two-fold serial dilutions are made for a given inhibitor from 2, 3 or 4 starting concentrations with a total of 24, 36 or 48 individual inhibitor concentrations. These dilutions are performed utilizing the BioMek robotics system. The assay consists of 10 μL or 40 nM HIV-1 protease, 10 μL of the various inhibitor concentrations, and 20 μL of 200 μM substrate (40 μL total). The reaction is allowed to proceed for 90 min at room temperature, terminated with 40 μL of avidin beads and processed (supra vide). An inhibitor with a known Ki is run in parallel to verify the validity of the assay. The data is processed utilizing a computer program employing a nonlinear least square analysis of the data to generate the Ki values.

In data set [3] the test system is HIV-1IIIB. The experiment in a line: HIV-1IIIB replication in human T-cell line H9 (p24 core antigen ELISA). Format: cell-based. The settings on record: human T-cell lines, e.g., H9, infected with HIV-1IIIB. As to the method: Several compounds of the present invention, such as 2,3-dimethyl-[…]-(2-phenylethyl)imidazo[2,1-b]thiazole-5-methanol were tested in known human cell lines, such as human T-cell lines, e.g., H9, which were infected with HIV-1IIIB. […] The H9 cell line was originally derived from the peripheral blood of a human lymphoma patient and extensively cloned so that the cells were highly susceptible to HIV infection. Virus-free H9 cells were maintained in a humidified 5% CO2 atmosphere at 37° C. in RPMI Complete (RC) medium, which was composed of RPMI 1640 supplemented with 10% heat-inactivated fetal calf serum (FCS), 10 mM Hepes, 2 mM L-glutamine, 100 μg/ml streptomycin, and 100 U/ml penicillin. H9 cultures were split 1:5 twice weekly for a maximum 12-15 times. […]
HIVIIIb 's ability to replicate efficiently in human T lymphoblastoid cell lines made this strain of HIV the logical choice for protease inhibitor screen. […] The titer, measured at the 50% Tissue Culture Infectious Dose (TCID50), was determined by the Reed-Muench method of statistical analysis to determine the 50% infectivity endpoint.
The standard acute infectivity assay for the evaluation of the inhibitors of HIV protease was performed in 96 well microplates. […] The amount of HIV p24 core antigen was quantified with an ELISA procedure by following the manufacturers directions (Coulter Diagnostics). […]
For orientation: ELISA stands for enzyme-linked immunosorbent assay.

Data set [4] relates to HIV-I protease. The settings on record: cited from earlier work.
Data set [5] relates to HIV. Particulars: cited from earlier work.
The conditions of data set [6]: humans; clinical; cited from earlier work.
[7] abbreviates: read-out: Protease Inhibition, % Inhibition.
The mark [8] stands for this setting: Table 4, read-out: Protease Inhibition, Ki.
Where [9] appears, read: read-out: % Protease Inhibition.
The mark [10] stands for this setting: 1.1 μM (Table 6), read-out: PROTEASE INHIBITION
Setting [11] is: 3.3 μM (Table 6), read-out: PROTEASE INHIBITION
[12] abbreviates: 10 μM (Table 2), read-out: % Protease Inhibition.

Like-named read-outs stand apart in the source and are kept apart here. Square brackets hold non-standard residues; d marks the D form. Peptide text beside a SMILES is read from it. * marks the point of attachment. Sta = CC(C)C[C@H](N)[C@@H](O)CC(=O)O; Isovaleryl = CC(C)CC(=O)*

In the case of `OC(CCc1ccccc1)c1cnc2sc3c(n12)CCCC3` (stereo not drawn) [Example 14, 5,6,7,8-Tetrahydro-α-(2-phenylethyl)imidazo[2,1-b]benzothiazole-3-methanol], in data set [1] (setting [7]), the inhibition at 1.1 µM came out at 73%. The Ki in data set [2] (setting [8]) is 68 ± 14 nM.

For the molecule `OC(CCCCc1ccccc1)c1cnc2sc3c(n12)CCCCC3` (stereo not drawn) [Example 16, 6,7,8,9-Tetrahydro-α-(4-phenylbutyl)-5-H-cyclohept[d]imidazo[2,1-b]thiazole-3-methanol], in data set [1] (setting [7]), the inhibition at 1.1 µM amounted to 54%. Also, the inhibition constant Ki in data set [2] (setting [8]) came to 227 ± 42 nM.

`Cc1sc2ncc(C(O)CCc3ccccc3)n2c1C` (stereo not drawn) [Example 11, 2,3-Dimethyl-α-(2-phenylethyl)imidazo[2,1-b]thiazole-5-methanol]: the “inhibition of retroviral replication” value in data set [3] is “found to inhibit retroviral replication”. Further, the entries for the “% Protease Inhibition” value in data set [1] (1.1-1.3 μM (Table 1)) and in data set [1] (3.3-3.7 μM (Table 1)) were 96% and 109%, respectively. Moreover, the inhibition at 10 µM in data set [1] (setting [9]) was determined as 112%. The Ki in data set [2] (Table 1, read-out: Ki) is 120 nM.

With `OC(CCc1ccccc1)c1cnc2sc3c(n12)CCCCC3` (stereo not drawn) [Example 15, 6,7,8,9-Tetrahydro-α-(2-phenylethyl)-5H-cyclohept[d]imidazo[2,1-b]thiazole-3-methanol], the inhibition at 1.1 µM in data set [1] (setting [7]) was 57%. In data set [2] (setting [8]), the Ki came out at 57 ± 14 nM.

For `CC(C)CC(=O)N[C@H](C(=O)N[C@H](C(=O)N[C@@H](CC(C)C)[C@@H](O)CC(=O)N[C@@H](C)C(=O)N[C@@H](CC(C)C)[C@@H](O)CC(=O)O)C(C)C)C(C)C` [Pepstatin A] (Isovaleryl-VV[Sta]A[Sta]-OH), the “inhibition of HIV-I protease” value in data set [4] is “inhibitor of HIV-I protease”.

As for `Nc1ccn([C@H]2CC[C@@H](CO)O2)c(=O)n1` [ddC], the “activity against HIV in vitro” value in data set [5] was “potent activity against HIV in vitro”. Also, the limiting toxicity entry in data set [6] is reported as “peripheral neuropathy which is reversible at low doses”.

Consider `OC(CCc1ccccc1)c1cnc2sc3c(n12)CCCCCC3` (stereo not drawn) [Example 17, 5,6,7,8,9,10-Hexahydro-α-(2-phenylethyl)cyclooct[d]imidazo-[2,1-b]thiazole-3-methanol], for which the inhibition at 1.1 µM in data set [1] (setting [7]) came out at 62%. In addition, the inhibitory constant (Ki) in data set [2] (setting [8]) came out at 72 ± 26 nM.

On to `Cc1sc2ncc(C(O)CCCc3ccccc3)n2c1C` (stereo not drawn) [Example 3, 2,3-Dimethyl-α-(3-phenylpropyl)imidazo-[2,1-b]thiazole-5-methanol], for which the results for the “% Protease Inhibition” value in data set [1] (1.1-1.3 μM (Table 1)) and in data set [1] (3.3-3.7 μM (Table 1)) were 16% and 72%, respectively. Also, the inhibition at 10 µM in data set [1] (setting [9]) came to 115%. For the same molecule, the Ki in data set [2] (Table 1, read-out: Ki) worked out at 246 nM.

Consider `OC(CCc1ccc(F)cc1)c1cnc2sc3c(n12)CCCCC3` (stereo not drawn) [Example 24, α-[2-(4-Fluorophenyl)ethyl]-6,7,8,9-tetrahydro-5H-cyclohept[d]imidazo[2,1-b]thiazol-3-methanol], for which the inhibition at 1.1 µM in data set [1] (setting [10]) worked out at 53%. Further, in data set [1] (setting [11]), the inhibition at 3.3 µM is 77%.

For the molecule `Cc1csc2ncc(C(C)(O)/C=C/c3ccccc3)n12` (stereo not drawn) [Example 5, α,3-Dimethyl-α-(E-2-phenyl-E-ethenyl)imidazo[2,1-b]thiazole-5-methanol], the inhibition at 10 µM in data set [1] (10 μM (Table 3), read-out: % Protease Inhibition) is less than 10%. The inhibition at 30 µM in data set [1] (30 μM (Table 3 footnote)) was 48.9%. Moreover, the “% Protease Inhibition” value in data set [1] (1-1.2 μM (Table 3)) and in data set [1] (3.3-3.7 μM (Table 3)) was less than 10% in each case.

`Cc1sc2ncc(C(O)Cc3ccccc3)n2c1C` (stereo not drawn) [Example 2, 2,3-Dimethyl-α-(2-phenylmethyl)imidazo-[2,1-b]thiazole-5-methanol]: the inhibition at 10 µM in data set [1] (10 μM (Table 1), read-out: % Protease Inhibition) amounted to 86%. Besides, the “% Protease Inhibition” value in data set [1] (1.1-1.3 μM (Table 1)) is less than 10%; in data set [1] (3.3-3.7 μM (Table 1)), 27%.

`Cc1sc2ncc(C(O)/C=C/c3ccccc3)n2c1C` (stereo not drawn) [Example 12, 2,3-Dimethyl-α-(2-phenylethenyl)imidazo[2,1-b]thiazole-5-methanol]: the results for the “% Protease Inhibition” value in data set [1] (1.1-1.3 μM (Table 1)) and in data set [1] (3.3-3.7 μM (Table 1)) were 63% and 103%, respectively. The inhibition at 10 µM in data set [1] (setting [9]) was 110%. The inhibition constant Ki in data set [2] (Table 1, read-out: Ki) turned out to be 567 ± 282 nM.

For the molecule `Cc1csc2ncc(C(O)CCCCc3ccccc3)n12` (stereo not drawn) [Example 10, 3-Methyl-α-(4-phenylbutyl)imidazo-[2,1-b]thiazole-5-methanol], the inhibition at 10 µM in data set [1] (setting [12]) came to 58%. The “% Protease Inhibition” value is less than 10% in data set [1] (1.1-1.3 μM (Table 2)) and 12% in data set [1] (3.3-3.7 μM (Table 2)).

As for `OC(CCc1cccc(Cl)c1)c1cnc2sc3c(n12)CCCCC3` (stereo not drawn) [Example 27, α-[2-(3-Chlorophenyl)ethyl]-6,7,8,9-tetrahydro-5H-cyclohept[d]imidazo[2,1-b]thiazol-3-methanol], the inhibition at 1.1 µM in data set [1] (setting [10]) is 55%. In addition, the inhibition at 3.3 µM in data set [1] (setting [11]) turned out to be 98%.

With `OC(CCc1ccccc1)c1cnc2sc3cc(F)ccc3n12` (stereo not drawn) [Example 20, 7-Fluoro-α-(2-phenylethyl)imidazo[2,1-b]benzothiazole-3-methanol], the inhibition at 3.3 µM in data set [1] (3.3 μM (Table 5), read-out: % HIV Protease Inhibition) came out at 43%. The inhibition at 10 µM in data set [1] (10 μM (Table 5), read-out: % HIV Protease Inhibition) came to 88%.

As to `Cc1csc2ncc(C(O)CCc3ccc(Br)cc3)n12` (stereo not drawn) [Example 9, 3-Methyl-α-(4-bromophenylethyl)imidazo[2,1-b]thiazole-5-methanol], the inhibition at 10 µM in data set [1] (setting [12]) is 83%. Further, the “% Protease Inhibition” value is recorded as less than 10% in data set [1] (1.1-1.3 μM (Table 2)) and 22% in data set [1] (3.3-3.7 μM (Table 2)).

In the case of `OC(CCc1ccccc1)c1cnc2sc3c(n12)CCC3` (stereo not drawn) [Example 13, 6,7-Dihydro-α-(2-phenylethyl)-5H-cyclopent[d]imidazo[2,1-b]thiazole-3-methanol], in data set [1] (1.1 μM (Table 4), read-out: Protease Inhibition, % Inhibition), the inhibition at 1.1 µM worked out at 39%.

As a reminder, the inhibition is the relative decrease from the control value, in per cent. Broadly, the Ki is the dissociation constant of the complex between target and ligand, obtained from inhibition or displacement.
